# Results published in patent publication US11331301B2, “Compositions and methods for treating cancer” (The State of Israel, Ministry of Agriculture & Rural …, priority 2017, dated 2022).
# Key:
# Assay type in all cases: cell-based
# HCT116 cells = test: Cytotoxic activity with CB1, CB2 and GPR55 receptor antagonists, Alamar Blue; conditions: THCA 0.12 mM
# Procedure: FIGS. 12A-C depict the determination of HCT116 cell viability using Alamar Blue fluorescence (Resazurin assay) as a function of cytotoxic effect. HCT116 cells were seeded (50,000 per well) in triplicate in 500 μL growing media and incubated for 24 h at 37° C. in a humidified 5% CO2-95% air atmosphere. […] Non-treated are the cells without TNF-α and treatments. Relative fluorescence at the excitation/emission of 544/590 nm was measured. Values were calculated as percentage of live cells relative to the non-treated (cells without TNF-α and treatments) control after reducing the autofluorescence of Alamar Blue without cells.
# FIG. 12D depicts determination of HCT116 cell viability using Alamar Blue fluorescence (resazurin assay) as a function of cytotoxic effect. HCT116 cells were seeded (50,000 per well) in triplicate in 500 μL growing media and incubated for 24 hours at 37° C. in a humidified 5% CO2-95% air atmosphere. […] Treatments with F7, F1-F9, and combination of fractions without antagonists served as a positive control (Con). Non-treated are the cells without TNF-α and treatments. […] Relative fluorescence at the excitation/emission of 544/590 nm was measured. Values were calculated as percentage of live cells relative to the non-treated (cells without TNF-α and treatments) control after reducing the autofluorescence of Alamar Blue without cells. […]
# GPR55 = test: Relative gene expression by qPCR after TNF-α; conditions: HCT-116; overnight TNF-α; versus GAPDH, 2-ΔΔCT; treated versus non-treated cells
# From the text: (§1) Transcripts for CB1, CB2 and GPR55 were detected by qPCR in HCT116 cells.
# CB2 = test: Relative gene expression by qPCR after TNF-α; conditions: HCT-116; overnight TNF-α; versus GAPDH, 2-ΔΔCT; treated versus non-treated cells
# From the text: as §1
# CB1 = test: Relative gene expression by qPCR after TNF-α; conditions: HCT-116; overnight TNF-α; versus GAPDH, 2-ΔΔCT; treated versus non-treated cells
# From the text: as §1
Compound,"effect of CB2 antagonist (SR144528) on cytotoxic activity (HCT116 cells; C2F 0.2 mg/mL, F7 0.08 mg/mL)",effect of CB1 antagonist (Rimonabant) on cytotoxic activity (HCT116 cells),Mean relative expression of GPR55 (GPR55),Mean relative expression of CB2 (CB2),Mean relative expression of CB1 (CB1)
"CCCCCc1cc2c(c(O)c1C(=O)O)[C@@H]1C=C(C)CC[C@H]1C(C)(C)O2 [THCA, tetrahydrocannabinolic acid]",significant reduction in cytotoxic activity,significant reduction in cell cytotoxic activities,,,
TNF-α,,,5.26,5.84,1.31
